One may read the melting point as the temperature of the solid-liquid transition.

In data set [1] the test system is Lindernia pyridaria (flasepimpernel). The data set can be described thus: Test Example 5: synergistic action by water surface application, LIDPY. It is filed as in vivo. Conditions: 75 g a.i./ha, run6, 4 weeks after application. The source says: (§1) Test for Synergistic Action by Water Sureface Application
(§2) In a greenhouse, paddy soil was filled in pots (250 cm^2), and seeds of weed (barnyardgrass, bulrush, monochoria, falsepimpemel, indian toothcup, waterwort and flatstage) were inoculated in the surface layer of the soil in the pots under wet conditions and covered with soil. All of the weed species were individually inoculated in each pot. Each pot was watered to 2 cm in depth and the depth was kept during the test period. When the weeds grew up to 1.5-2.2 leaf stage (or pair), a predetermined amount of the compound as a testing solution prepared in the same manner as the above-mentioned Test Example 4 was applied to the pots by water surface treatment method. The herbicidal effect was evaluated at 4 weeks after the application on the same scale as in thetest method of Test Example 4.
(§3) Synergistic action of Test Example 4 and Test Example 5 were evaluated by Colby's equation. [formula]
(§4) E: expected herbicidal activity at p+q g/ha
(§5) X: the percentage of herbicidal activity at p g/ha
(§6) Y: the percentage of herbicidal activity at q g/ha

The test system of data set [2] is Rotala indica (indian toothcup). The data set is described as follows: Test Example 5: synergistic action by water surface application, ROTIN. The data set is classed as in vivo. Conditions: 75 g a.i./ha, run6, 4 weeks after application.
Source text: as §1, §2, §3, §4, §5, §6

Structures are written as SMILES.

`CCn1nnnc1SCc1c(S(C)(=O)=O)ccc(C(=O)C2C(=O)CCCC2=O)c1Cl` showed a melting point of 67 to 71 °C.

On to `Cn1nnnc1SCc1c(S(C)(=O)=O)ccc(C(=O)C2=C(Sc3ccccc3)CCCC2=O)c1Cl`, for which the melting point fell in the range of 76 to 87 °C. Turning to `CCC1(CC2(c3cccc(Cl)c3)CO2)C(=O)c2ccccc2C1=O` (racemic) [G, (RS)-2-[2-(3-chlorophenyl)2,3-epoxypropyl]-2-ethylindan-1,3-dione], the “Herbicidal efficacy, known herbicide” value in data set [1] and in data set [2] was 60% each time.

Values taken from US6770599B2, “Tetrazole derivatives” (Bayer CropScience KK, priority 2000, dated 2004).
